Data from patent publication US20230027026A1, “FUSED PYRIMIDINE COMPOUNDS, COMPOSITIONS AND MEDICINAL APPLICATIONS THEREOF” (JUBILANT BIOSYS LIMITED, priority 2019, published 2023).
Structures can show the parent of a compound that is named as a salt.

What was measured:
[1] = molecular target: T1, EGFR (T790M/L858R) (Homo sapiens, UniProt P00533, L858R/T790M); experiment: EGFR L858R/T790M enzyme inhibition assay (HTRF); format: biochemical; details: 5 μM ATP, 60 min, read-out: EGFR_L858R T790M_IC50_nM
T1 construct: GST; purchased Proqinase
T1 sequence (P00533 25-1210 T790M/L858R): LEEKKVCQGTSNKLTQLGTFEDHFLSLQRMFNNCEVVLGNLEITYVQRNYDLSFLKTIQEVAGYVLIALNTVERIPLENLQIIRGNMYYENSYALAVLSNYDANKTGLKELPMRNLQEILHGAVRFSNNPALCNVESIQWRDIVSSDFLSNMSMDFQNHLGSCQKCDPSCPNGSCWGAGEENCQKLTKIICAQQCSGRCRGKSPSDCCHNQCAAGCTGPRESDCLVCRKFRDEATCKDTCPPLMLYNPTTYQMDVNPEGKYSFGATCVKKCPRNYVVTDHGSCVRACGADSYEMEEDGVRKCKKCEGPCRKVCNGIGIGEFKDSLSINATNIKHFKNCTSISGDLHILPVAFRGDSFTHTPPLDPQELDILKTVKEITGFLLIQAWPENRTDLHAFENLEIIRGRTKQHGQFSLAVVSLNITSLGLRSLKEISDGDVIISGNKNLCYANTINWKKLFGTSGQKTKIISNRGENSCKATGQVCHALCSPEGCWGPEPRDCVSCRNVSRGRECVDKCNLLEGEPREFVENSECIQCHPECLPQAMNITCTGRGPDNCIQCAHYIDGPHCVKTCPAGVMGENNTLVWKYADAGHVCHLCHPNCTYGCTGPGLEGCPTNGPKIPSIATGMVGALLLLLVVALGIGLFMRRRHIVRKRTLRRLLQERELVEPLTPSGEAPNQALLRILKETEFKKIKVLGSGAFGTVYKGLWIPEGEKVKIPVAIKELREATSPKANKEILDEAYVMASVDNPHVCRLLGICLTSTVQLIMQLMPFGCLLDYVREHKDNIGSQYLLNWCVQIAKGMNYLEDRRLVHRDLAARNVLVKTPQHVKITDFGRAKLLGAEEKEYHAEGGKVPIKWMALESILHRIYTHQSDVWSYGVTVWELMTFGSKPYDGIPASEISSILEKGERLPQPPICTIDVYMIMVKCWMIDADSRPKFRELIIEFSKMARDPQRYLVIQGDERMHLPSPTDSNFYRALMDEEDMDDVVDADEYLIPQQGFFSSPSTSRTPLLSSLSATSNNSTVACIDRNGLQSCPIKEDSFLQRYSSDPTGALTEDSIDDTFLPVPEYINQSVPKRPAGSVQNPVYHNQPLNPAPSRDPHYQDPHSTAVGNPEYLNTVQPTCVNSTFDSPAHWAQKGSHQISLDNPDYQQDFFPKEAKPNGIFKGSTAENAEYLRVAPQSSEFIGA
Experimental: Example 2: EGFR L858R & Del19/T790M Assay Protocol (to Find the IC50 for the Compounds Using HTRF Method)
Reagents for Enzyme Assay:
• 1. Enzyme Assay Buffer: 60 mM HEPES (pH 7.4), 50 mM NaCl, 20 mM MgCl2, 5 mM MnCl2, filtered using 0.2 μm pore size, stored at 4° C. • Supplements (added fresh to the enzyme buffer): 1M DTT stock was made, 5% BSA stock and 0.1M Na3OV4 stored at 4° C. Enzyme assay buffer 50 mL, 1 M DTT 100 μL, 5% BSA 500 μL, 0.1 M Na3OV4 50 μL. • 2. GST-hEGFR (L858R), active: EGFR (T790M/L858R), active (Proqinase), 3.6 μM stock; 2.5 nM in final assay. • 3. Gastrin Precusor-Biotinylated: Gastrin precursor (Tyr87) biotinylated peptide, EEAY*GWM, Cell Signaling Tech 1310, Lot-7, Want final 0.5 μM in assay. • 4. ATP: 10 mM stock in 100 μL Enzyme assay buffer pH 7.4 prepared freshly, want 5 μM in final assay. • 5. Test compounds: Powders were dissolved in 100% DMSO and made up to a final stock concentration of 10 mM (volume in μL to add for 10 mM=mg powder X 10^5/MW). Final compound concentration in the assay plate started at 10 μM.
• 1. HTRF buffer: 50 mM Tris —HCl, pH-7.5, 100 mM NaCl, 0.1% BSA, 0.05% Tween20, 0.5 mM EDTA, filtered using 0.2 μm pore size, stored at 4° C. • Phycolink® Streptavidin-Allophycocyanin (SA-APC) Prozyme, Cat. #PJ25S, Lot #896 085, 2.06 mg/mL, APC concentration is 11.6 μM, streptavidin concentration is 15.5 μM. Want 12 nM final in assay (based on streptavidin concentration). • 2. (Europium) Eu-W1024 Anti-phosphotyrosine (PT-66) Antibody: Perkin Elmer (Product Number: AD0068), monoclonal IgG1 that recognizes phosphotyrosine peptide 100 μg/ml stock. Want 0.1 nM final in assay.
• 1. The compound dilution was made by TECAN as per the above scheme. • 2. 16 μL of diluted compound was added to the assay plate by using TECAN. • 3. 10 μL of enzyme mix was added to each well except mins. • 4. 20 μL of substrate and ATP mix were added into each well of the assay plate, manually. • 5. The plate was incubated on a laboratory shaker at room temperature for 60 min. • 6. Meanwhile, the HTRF mix was prepared and 75 μL was added to the HTRF plate. • 7. When the incubation was over, 10 μL of the reaction mixture was transferred to the HTRF assay plate and incubated on a laboratory shaker for 30 min at room temperature. • 8. The reading was taken in Pherastar (ext 337 nm, Em 665 & 620 nm). • 9. The results were analyzed using Graphpad prism after calculation of the z factor, signal window and % inhibition to get the IC50.

[2] = test system: H1975 cells (L858R_T790M mutant); experiment: H1975 proliferation assay; format: cell-based; details: Homo sapiens, NCI-H1975; read-out: Proliferation_Assay H1975 cells-EC50_nM L858R_T790M_mutant
[3] = test system: A431 cells; experiment: Cellular proliferation (Alamar Blue) assay, A431; format: cell-based; details: Homo sapiens, A-431; A431 cells, 72 hr, Alamar Blue; read-out: A431 IC50
Method in brief: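 Seventy-two-hour growth assay with 3-fold compound titration (final 10–0.0005 μM) and Alamar Blue fluorescence end point, ex 540/em 590 nm.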

[4] = molecular target: EGFR (A767_dupASV) expressing Ba/F3 stable cell line (Homo sapiens, UniProt P00533, DUP767-769, cells depend on it); experiment: Cellular proliferation (Alamar Blue) assay, EGFR A767_dupASV Ba/F3; format: cell-based; details: EGFR A767_dupASV Ba/F3, 72 hr, read-out: A767 IC50
EGFR (A767_dupASV) expressing Ba/F3 stable cell line, sequence (P00533 with tags, fused parts or gaps DUP767-769): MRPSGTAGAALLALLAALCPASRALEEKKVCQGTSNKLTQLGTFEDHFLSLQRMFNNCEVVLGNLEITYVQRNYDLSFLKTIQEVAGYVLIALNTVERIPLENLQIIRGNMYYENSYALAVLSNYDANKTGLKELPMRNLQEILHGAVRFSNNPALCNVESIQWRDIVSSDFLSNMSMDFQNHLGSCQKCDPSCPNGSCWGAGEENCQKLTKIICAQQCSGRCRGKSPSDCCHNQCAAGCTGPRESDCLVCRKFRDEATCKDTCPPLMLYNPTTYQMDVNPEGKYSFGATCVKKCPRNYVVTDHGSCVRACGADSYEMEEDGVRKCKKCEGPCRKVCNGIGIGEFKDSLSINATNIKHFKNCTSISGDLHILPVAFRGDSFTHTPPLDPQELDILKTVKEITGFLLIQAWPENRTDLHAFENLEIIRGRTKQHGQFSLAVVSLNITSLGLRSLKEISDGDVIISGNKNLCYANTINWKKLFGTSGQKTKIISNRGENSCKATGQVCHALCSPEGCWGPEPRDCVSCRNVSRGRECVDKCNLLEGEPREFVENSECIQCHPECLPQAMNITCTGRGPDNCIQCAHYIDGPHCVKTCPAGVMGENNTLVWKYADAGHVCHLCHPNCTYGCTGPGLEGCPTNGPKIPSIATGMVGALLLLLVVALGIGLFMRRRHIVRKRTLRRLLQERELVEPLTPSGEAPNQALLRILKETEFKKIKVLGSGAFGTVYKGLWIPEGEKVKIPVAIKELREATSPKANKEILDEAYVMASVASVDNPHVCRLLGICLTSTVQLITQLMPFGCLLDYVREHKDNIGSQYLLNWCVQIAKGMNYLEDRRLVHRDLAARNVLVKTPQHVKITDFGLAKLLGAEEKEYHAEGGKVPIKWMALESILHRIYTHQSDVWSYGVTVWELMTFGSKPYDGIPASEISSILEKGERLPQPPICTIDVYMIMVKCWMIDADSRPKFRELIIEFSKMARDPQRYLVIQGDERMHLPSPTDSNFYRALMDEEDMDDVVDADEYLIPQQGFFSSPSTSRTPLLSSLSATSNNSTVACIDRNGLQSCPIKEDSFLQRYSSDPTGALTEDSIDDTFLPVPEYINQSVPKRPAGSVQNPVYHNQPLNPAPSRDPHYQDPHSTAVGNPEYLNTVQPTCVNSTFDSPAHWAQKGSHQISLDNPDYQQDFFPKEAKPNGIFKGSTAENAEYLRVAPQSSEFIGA
Method in brief: (§1)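 Alamar Blue proliferation read-out (3 h incubation, ex 540/em 590 nm) after 72 h compound exposure at 37 °C, 5% CO2, using final concentrations of 10-0.0005 μM in 3-fold steps. Cells: engineered Ba/F3 lines at 15,000 per well in RPMI/10% FBS, and BT-474.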

[5] = molecular target: EGFR(D770_N771insSVD) expressing Ba/F3 stable cell line (Homo sapiens, UniProt P00533, DUP768-770, cells depend on it); experiment: Cellular proliferation (Alamar Blue) assay, EGFR D770_N771insSVD Ba/F3; format: cell-based; details: EGFR D770_N771insSVD Ba/F3, 72 hr, read-out: D770 IC50
EGFR(D770_N771insSVD) expressing Ba/F3 stable cell line, sequence (P00533 with tags, fused parts or gaps DUP768-770): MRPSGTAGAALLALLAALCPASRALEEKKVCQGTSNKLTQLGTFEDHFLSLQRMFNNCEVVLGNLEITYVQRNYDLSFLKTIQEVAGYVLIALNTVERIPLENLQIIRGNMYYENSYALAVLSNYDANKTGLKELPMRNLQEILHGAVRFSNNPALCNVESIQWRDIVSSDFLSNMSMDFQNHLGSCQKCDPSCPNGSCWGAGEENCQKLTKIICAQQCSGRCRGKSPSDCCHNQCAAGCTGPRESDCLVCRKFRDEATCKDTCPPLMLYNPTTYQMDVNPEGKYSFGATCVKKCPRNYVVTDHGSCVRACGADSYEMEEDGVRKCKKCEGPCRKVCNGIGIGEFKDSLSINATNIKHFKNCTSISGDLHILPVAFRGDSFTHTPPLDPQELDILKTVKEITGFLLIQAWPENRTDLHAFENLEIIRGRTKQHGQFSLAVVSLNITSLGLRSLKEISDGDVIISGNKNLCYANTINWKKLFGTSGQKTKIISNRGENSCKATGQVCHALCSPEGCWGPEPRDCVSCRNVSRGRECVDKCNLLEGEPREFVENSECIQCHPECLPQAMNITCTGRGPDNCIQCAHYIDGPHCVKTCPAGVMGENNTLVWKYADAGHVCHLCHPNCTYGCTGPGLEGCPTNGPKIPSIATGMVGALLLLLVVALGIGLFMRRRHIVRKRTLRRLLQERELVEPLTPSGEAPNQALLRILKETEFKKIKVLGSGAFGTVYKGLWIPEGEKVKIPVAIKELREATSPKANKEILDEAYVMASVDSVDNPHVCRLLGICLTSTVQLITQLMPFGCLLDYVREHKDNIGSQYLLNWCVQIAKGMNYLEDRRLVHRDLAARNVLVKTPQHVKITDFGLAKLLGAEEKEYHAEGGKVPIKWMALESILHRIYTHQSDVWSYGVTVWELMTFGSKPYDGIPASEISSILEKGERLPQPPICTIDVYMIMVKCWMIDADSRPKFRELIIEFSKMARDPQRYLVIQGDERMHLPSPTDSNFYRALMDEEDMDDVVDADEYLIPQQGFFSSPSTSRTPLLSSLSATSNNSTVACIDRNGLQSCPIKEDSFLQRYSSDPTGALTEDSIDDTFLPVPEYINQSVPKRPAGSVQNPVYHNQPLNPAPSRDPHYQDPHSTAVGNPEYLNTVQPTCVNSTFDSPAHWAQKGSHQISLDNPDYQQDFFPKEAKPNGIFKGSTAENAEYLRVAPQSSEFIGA
Method in brief: as §1

[6] = molecular target: HER2 (A775_G776insYVMA) expressing Ba/F3 stable cell line (Homo sapiens, UniProt P04626, DUP772-775, cells depend on it); experiment: Cellular proliferation (Alamar Blue) assay, HER2 YVMA Ba/F3; format: cell-based; details: HER2 A775_G776insYVMA Ba/F3, 72 hr, read-out: YVMA IC50
HER2 (A775_G776insYVMA) expressing Ba/F3 stable cell line, sequence (P04626 with tags, fused parts or gaps DUP772-775): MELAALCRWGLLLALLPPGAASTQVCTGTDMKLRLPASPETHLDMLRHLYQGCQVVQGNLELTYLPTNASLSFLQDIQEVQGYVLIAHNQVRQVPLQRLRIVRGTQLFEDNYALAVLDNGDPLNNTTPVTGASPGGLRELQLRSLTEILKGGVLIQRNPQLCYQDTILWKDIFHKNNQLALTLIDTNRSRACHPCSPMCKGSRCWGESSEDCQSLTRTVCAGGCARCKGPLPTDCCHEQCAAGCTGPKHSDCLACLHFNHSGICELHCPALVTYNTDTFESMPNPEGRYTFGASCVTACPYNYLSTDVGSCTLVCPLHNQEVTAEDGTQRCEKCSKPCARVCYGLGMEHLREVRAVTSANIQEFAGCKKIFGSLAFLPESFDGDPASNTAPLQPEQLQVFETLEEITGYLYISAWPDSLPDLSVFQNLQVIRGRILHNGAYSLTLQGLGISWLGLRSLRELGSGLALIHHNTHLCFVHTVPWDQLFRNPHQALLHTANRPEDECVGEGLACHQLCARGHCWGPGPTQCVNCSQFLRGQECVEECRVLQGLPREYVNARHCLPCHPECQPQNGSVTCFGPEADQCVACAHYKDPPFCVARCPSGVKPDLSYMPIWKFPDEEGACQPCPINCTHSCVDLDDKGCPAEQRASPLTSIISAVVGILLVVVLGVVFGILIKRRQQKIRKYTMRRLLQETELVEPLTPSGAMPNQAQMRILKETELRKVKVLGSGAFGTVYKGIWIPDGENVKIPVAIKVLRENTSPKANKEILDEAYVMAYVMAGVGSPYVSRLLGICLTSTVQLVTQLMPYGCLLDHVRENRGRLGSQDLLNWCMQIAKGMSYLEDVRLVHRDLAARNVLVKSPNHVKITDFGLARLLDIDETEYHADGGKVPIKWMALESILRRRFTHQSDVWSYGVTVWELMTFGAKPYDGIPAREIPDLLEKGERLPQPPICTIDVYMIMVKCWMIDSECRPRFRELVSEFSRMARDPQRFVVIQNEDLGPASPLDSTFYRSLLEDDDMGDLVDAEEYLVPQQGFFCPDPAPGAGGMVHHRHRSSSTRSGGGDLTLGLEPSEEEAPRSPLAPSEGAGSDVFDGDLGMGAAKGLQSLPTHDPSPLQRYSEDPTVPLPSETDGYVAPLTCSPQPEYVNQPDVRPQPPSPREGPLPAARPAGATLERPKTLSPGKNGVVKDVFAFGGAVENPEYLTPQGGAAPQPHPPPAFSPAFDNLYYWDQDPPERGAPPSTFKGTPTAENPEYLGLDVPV
Experimental: Example 3: Cellular Proliferation (Alamar Blue) Assays
• 1. EGFR(D770_N771insSVD) expressing Ba/F3 stable cell line • 2. EGFR (A767_dupASV) expressing Ba/F3 stable cell line • 3. A431 cells • 4. BTER2 (A775_G776insYVMA) expressing Ba/F3 stable cell line • 5. BTER2 (WT) expressing Ba/F3 stable cell line • 6. BT-474 cells
• 1. Seed cells at 5000 for A431 and 15,000 cells for Ba/F3 in 100 μL/well in complete media (for A431: DMEM with 10% FBS and for Ba/F3 cells: RPMI with 10% FBS) in 96-well tissue culture plate. Leave outer wells without cells for background measurements. Incubate at 37 degree Celsius in 5% CO2 humidified incubator for 16-18 hours. • 2. Add 0.025 ml of 5× concentration compound dilution or DMSO control. Final compound concentration range is 10-0.0005 μM prepared in 3-fold serial dilutions. Incubate for 72 hr at 37 degree Celsius in […] humidified incubator. • 3. Add 0.0125 mL Alamar Blue™ reagent to each well with multi-channel pipette and tap gently on each side of the plate to mix. Incubate for 3 hours at 37 degree Celsius in […] humidified incubator. • 4. Read plates on fluorescence reader (Tecan Spark Control, Device: Spark, Serial #: 1801006040) at 540 nm excitation, 590 nm emission wavelength. • 5. Data analysis was performed using XLfit 5.5.0.5.

Compound	IC50 [1] [nM]	EC50 [2] [nM]	IC50 [3] [nM]	GI50 [4] [nM]	GI50 [5] [nM]	GI50 [6] [nM]
C=CC(=O)Nc1cccc(N2C(=O)N(Cc3ccccc3)Cc3cnc(Nc4cnn(C5CC5)c4)nc32)c1 [Compound 5, N-(3-(3-benzyl-7-((1-cyclopropyl-1H-pyrazol-4-yl)amino)-2-oxo-3,4-dihydropyrimido[4,5-d]pyrimidin-1(2H)-yl)phenyl)acrylamide]	1	5.7	–	–	–	–
CN(C)C/C=C/C(=O)Nc1cccc(N2C(=O)N(Cc3ccccc3)Cc3cnc(Nc4cnn(C5CC5)c4)nc32)c1 [Compound 7, (E)-N-(3-(3-benzyl-7-((1-cyclopropyl-1H-pyrazol-4-yl)amino)-2-oxo-3,4-dihydropyrimido[4,5-d]pyrimidin-1(2H)-yl)phenyl)-4-(dimethylamino)but-2-enamide]	6	9.3	–	–	–	–
C=CC(=O)Nc1cccc(N2C(=O)N(c3ccc(F)cc3)Cc3cnc(Nc4cnn(C)c4)nc32)c1 [Compound 17, N-(3-(3-(4-fluorophenyl)-7-((1-methyl-1H-pyrazol-4-yl)amino)-2-oxo-3,4-dihydropyrimido[4,5-d]pyrimidin-1(2H)-yl)phenyl)acrylamide]	0.5	0.7	–	–	–	–
Cc1cnc(Nc2ncc3c(n2)N(c2cccc(NC(=O)/C=C/CN(C)C)c2)C(=O)N(Cc2ccccc2)C3)s1 [Compound 19, (E)-N-(3-(3-benzyl-7-((5-methylthiazol-2-yl)amino)-2-oxo-3,4-dihydropyrimido[4,5-d]pyrimidin-1(2H)-yl)phenyl)-4-(dimethylamino)but-2-enamide]	6	16	–	–	–	–
CN(C)C/C=C/C(=O)Nc1cccc(N2C(=S)N(c3ccccc3)Cc3cnc(Nc4cn(C)nc4Cl)nc32)c1 [Compound 51, (E)-N-(3-(7-((3-chloro-1-methyl-1H-pyrazol-4-yl)amino)-3-phenyl-2-thioxo-3,4-dihydropyrimido[4,5-d]pyrimidin-1(2H)-yl)phenyl)-4-(dimethylamino)but-2-enamide]	8	9.8	–	–	–	–
C=CC(=O)Nc1cccc(N2C(=O)N(c3ccccc3)Cc3cnc(Nc4cn(C(C)(C)C#N)nc4Cl)nc32)c1 [Compound 123, N-(3-(7-((3-chloro-1-(2-cyanopropan-2-yl)-1H-pyrazol-4-yl)amino)-2-oxo-3-phenyl-3,4-dihydropyrimido[4,5-d]pyrimidin-1(2H)-yl)phenyl)acrylamide trifluoroacetate salt]	–	–	≥ 10000	176	300	319
CN(C)C1CCN(C/C=C/C(=O)Nc2cccc(N3C(=O)N(c4ccccc4)Cc4cnc(Nc5cn(C)nc5Cl)nc43)c2)CC1 [Compound 124, (E)-N-(3-(7-((3-chloro-1-methyl-1H-pyrazol-4-yl)amino)-2-oxo-3-phenyl-3,4-dihydropyrimido[4,5-d]pyrimidin-1(2H)-yl)phenyl)-4-(4-(dimethylamino)piperidin-1-yl)but-2-enamide]	–	–	≥ 10000	2760	4980	1480
CC#CC(=O)Nc1cccc(N2C(=O)N(c3ccccc3)Cc3cnc(Nc4cn(C)nc4Cl)nc32)c1 [Compound 125, N-(3-(7-((3-chloro-1-methyl-1H-pyrazol-4-yl)amino)-2-oxo-3-phenyl-3,4-dihydropyrimido[4,5-d]pyrimidin-1(2H)-yl)phenyl)but-2-ynamide]	–	–	≥ 10000	269	338	445
C=CC(=O)Nc1ccc(F)c(N2C(=O)N(c3ccccc3)Cc3cnc(Nc4cn(C)nc4Cl)nc32)c1 [Compound 128, N-(3-(7-((3-chloro-1-methyl-1H-pyrazol-4-yl)amino)-2-oxo-3-phenyl-3,4-dihydropyrimido[4,5-d]pyrimidin-1(2H)-yl)-4-fluorophenyl)acrylamide trifluoroacetate salt]	–	–	≥ 10000	11	12	24

Results, then the molecule that gave them:

IC50 [1] [nM]	EC50 [2] [nM]	IC50 [3] [nM]	GI50 [4] [nM]	GI50 [5] [nM]	GI50 [6] [nM]	Compound
–	–	≥ 10000	157	333	312	C=CC(=O)Nc1cccc(N2C(=O)N(c3ccccc3)Cc3cnc(Nc4cn(C5CCC(O)CC5)nc4Cl)nc32)c1 (stereo not drawn) [Compound 129, N-(3-(7-((3-chloro-1-(4-hydroxycyclohexyl)-1H-pyrazol-4-yl)amino)-2-oxo-3-phenyl-3,4-dihydropyrimido[4,5-d]pyrimidin-1(2H)-yl)phenyl)acrylamide trifluoroacetate salt]
–	–	3510	373	765	1130	C=CC(=O)Nc1ccc(N2C(=O)N(c3ccccc3)Cc3cnc(Nc4cn(C)nc4Cl)nc32)cc1 [Compound 131, N-(4-(7-((3-chloro-1-methyl-1H-pyrazol-4-yl)amino)-2-oxo-3-phenyl-3,4-dihydropyrimido[4,5-d]pyrimidin-1(2H)-yl)phenyl)acrylamide]
–	–	> 10000	43	120	294	O=C(/C=C/CF)Nc1cccc(N2C(=O)N(c3ccccc3)Cc3cnc(Nc4cccnc4F)nc32)c1 [Compound 135, (E)-4-fluoro-N-(3-(7-((2-fluoropyridin-3-yl)amino)-2-oxo-3-phenyl-3,4-dihydropyrimido[4,5-d]pyrimidin-1(2H)-yl)phenyl)but-2-enamide]
–	–	> 10000	15	29	63	C=CC(=O)Nc1cccc(N2C(=O)N(c3ccccc3)Cc3cnc(Nc4cn(C5COC5)nc4Cl)nc32)c1 [Compound 136, N-(3-(7-((3-chloro-1-(oxetan-3-yl)-1H-pyrazol-4-yl)amino)-2-oxo-3-phenyl-3,4-dihydropyrimido[4,5-d]pyrimidin-1(2H)-yl)phenyl)acrylamide]
